The term IC50 denotes the concentration needed to halve the response being measured. In general, Ki refers to a dissociation constant, usually derived from enzyme kinetics or from competition with a known ligand.

This note sets out measurements from ChEMBL document CHEMBL1909046, “DrugMatrix in vitro pharmacology data”.

Test [1] concerns the target T1, C-C chemokine receptor type 4 (Homo sapiens, UniProt P51679). Further: in other assays of this panel Not Active means under 50% inhibition at 10 µM.
T1 sequence (P51679 whole entry): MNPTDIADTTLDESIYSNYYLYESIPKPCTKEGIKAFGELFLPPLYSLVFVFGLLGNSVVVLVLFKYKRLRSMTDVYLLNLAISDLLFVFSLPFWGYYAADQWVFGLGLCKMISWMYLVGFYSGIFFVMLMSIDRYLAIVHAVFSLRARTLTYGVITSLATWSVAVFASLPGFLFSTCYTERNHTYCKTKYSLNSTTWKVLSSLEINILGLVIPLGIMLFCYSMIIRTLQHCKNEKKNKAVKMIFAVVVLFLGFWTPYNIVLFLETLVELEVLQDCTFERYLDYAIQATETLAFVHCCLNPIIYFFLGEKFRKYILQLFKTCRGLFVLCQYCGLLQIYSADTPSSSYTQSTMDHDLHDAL
The test is classed as cell membranes, Membrane. The note with it: chem-1.

Test [2] can be described thus: DRUGMATRIX: Glutamate, AMPA radioligand binding (ligand: [3H] AMPA). The note with it: Not Active = under 50% inhibition at 10 µM. The test is classed as cell membranes, Rattus norvegicus, Wistar, Cerebral cortex, Membrane.
Test [3] addresses T2, 5-hydroxytryptamine receptor 2C (Homo sapiens, UniProt P28335).
T2 sequence (P28335 whole entry): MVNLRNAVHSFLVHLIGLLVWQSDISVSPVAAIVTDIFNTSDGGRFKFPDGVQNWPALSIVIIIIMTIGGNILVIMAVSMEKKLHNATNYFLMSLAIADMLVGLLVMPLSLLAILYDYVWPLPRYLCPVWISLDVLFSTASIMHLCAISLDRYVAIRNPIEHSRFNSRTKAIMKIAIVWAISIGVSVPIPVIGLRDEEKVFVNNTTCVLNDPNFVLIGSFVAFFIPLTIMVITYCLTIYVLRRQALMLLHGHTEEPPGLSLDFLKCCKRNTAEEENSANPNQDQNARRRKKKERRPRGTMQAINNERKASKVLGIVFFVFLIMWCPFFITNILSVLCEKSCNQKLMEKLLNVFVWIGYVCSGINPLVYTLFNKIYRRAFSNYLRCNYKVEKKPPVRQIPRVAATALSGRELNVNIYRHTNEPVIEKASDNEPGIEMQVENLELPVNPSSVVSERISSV
The experiment in a line: DRUGMATRIX: Serotonin (5-Hydroxytryptamine) 5-HT2C radioligand binding (ligand: [3H] Mesulergine). Format: cell membranes, CHO-K1, Membrane. As to conditions: cho-k1; Not Active = under 50% inhibition at 10 µM.

A short description of test [4]: DRUGMATRIX: beta-Lactamase enzyme inhibition (substrate: Nitrocefin). On the set-up: species or system Bacillus cereus. The note with it: Not Active = under 50% inhibition at 10 µM.
Test [5] in a line: DRUGMATRIX: GABAA, Flunitrazepam, Central radioligand binding (ligand: [3H] Flunitrazepam). As to conditions: Not Active = under 50% inhibition at 10 µM. Format: cell membranes, Rattus norvegicus, Wistar, Brain, Membrane.
Test [6] has as its target T3, 3-hydroxy-3-methylglutaryl-coenzyme A reductase (Homo sapiens, UniProt P04035).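 Further: enzyme inhibition assay of HMG-CoA reductase using radiolabeled [14C]HMG-CoA as substrate; in other assays of this panel Not Active means under 50% inhibition at 10 µM.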
T3 sequence (P04035 whole entry): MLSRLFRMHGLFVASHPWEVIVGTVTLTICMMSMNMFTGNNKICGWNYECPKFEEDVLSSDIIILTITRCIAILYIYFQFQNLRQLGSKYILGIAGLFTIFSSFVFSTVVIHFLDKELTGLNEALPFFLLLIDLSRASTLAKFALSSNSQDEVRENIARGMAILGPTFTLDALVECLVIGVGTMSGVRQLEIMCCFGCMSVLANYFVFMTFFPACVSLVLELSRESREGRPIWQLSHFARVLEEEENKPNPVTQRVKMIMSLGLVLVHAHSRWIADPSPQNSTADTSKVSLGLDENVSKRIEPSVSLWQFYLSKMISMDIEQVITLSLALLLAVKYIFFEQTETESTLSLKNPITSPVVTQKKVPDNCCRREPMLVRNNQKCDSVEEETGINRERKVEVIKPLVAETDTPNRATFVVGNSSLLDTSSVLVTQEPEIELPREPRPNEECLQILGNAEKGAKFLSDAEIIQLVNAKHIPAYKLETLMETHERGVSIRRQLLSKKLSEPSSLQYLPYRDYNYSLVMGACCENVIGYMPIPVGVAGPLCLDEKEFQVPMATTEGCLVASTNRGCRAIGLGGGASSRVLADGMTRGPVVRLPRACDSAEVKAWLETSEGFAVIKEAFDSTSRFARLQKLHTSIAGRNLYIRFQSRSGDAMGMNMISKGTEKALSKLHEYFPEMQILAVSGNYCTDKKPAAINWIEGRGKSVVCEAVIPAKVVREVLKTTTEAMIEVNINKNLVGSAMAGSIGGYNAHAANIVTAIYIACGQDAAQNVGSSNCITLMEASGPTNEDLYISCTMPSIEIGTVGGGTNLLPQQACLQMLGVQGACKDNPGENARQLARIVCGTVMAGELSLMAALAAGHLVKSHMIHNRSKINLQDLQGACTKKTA
Further details: species or system Escherichia coli.

For test [7], the target named is T4, Interstitial collagenase (Homo sapiens, UniProt P03956).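 Further: MMP-1 enzyme inhibition assay using a peptide substrate; in other assays of this panel Not Active means under 50% inhibition at 10 µM.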
T4 sequence (P03956 whole entry): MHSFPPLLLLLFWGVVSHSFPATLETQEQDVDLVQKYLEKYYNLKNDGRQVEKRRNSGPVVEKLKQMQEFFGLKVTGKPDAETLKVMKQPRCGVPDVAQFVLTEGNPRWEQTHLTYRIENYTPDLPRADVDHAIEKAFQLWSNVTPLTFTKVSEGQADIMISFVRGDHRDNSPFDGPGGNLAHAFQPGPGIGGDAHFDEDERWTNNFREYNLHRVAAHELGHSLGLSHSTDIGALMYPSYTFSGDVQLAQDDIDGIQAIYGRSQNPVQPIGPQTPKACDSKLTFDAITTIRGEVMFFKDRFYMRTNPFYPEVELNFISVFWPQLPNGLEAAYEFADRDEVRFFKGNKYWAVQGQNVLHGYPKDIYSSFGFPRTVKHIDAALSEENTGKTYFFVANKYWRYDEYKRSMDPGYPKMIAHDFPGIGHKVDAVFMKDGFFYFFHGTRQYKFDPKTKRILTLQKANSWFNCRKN
Description: biochemical. The test is classed as tissue-based, Rheumatoid synovial fibroblasts.

With `CCN(C(C)=O)c1cccc(-c2ccnc3c(C#N)cnn23)c1` [ZALEPLON], the IC50 result in test [1] was “Not Active”; in test [2], “Not Active”; in test [3], “Not Active”; in test [4], “Not Active”; in test [5] (read-out: IC50), 412 nM; in test [6], “Not Active”. In addition, the half-inhibitory concentration (IC50) entry in test [7] is reported as “Not Active”. Further, the results for the inhibition constant (Ki) result in test [2], in test [4] and in test [5] (read-out: Ki) were “Not Active”, “Not Active” and 336 nM, respectively.

Regarding COBALTOUS CHLORIDE, the 50% inhibitory concentration (IC50) result in test [1], in test [2], in test [3], in test [4], in test [5] and in test [6] was “Not Active” each time. The 50% inhibitory concentration (IC50) result in test [7] is “Not Active”. The Ki result in test [1], in test [2], in test [3], in test [4], in test [5] and in test [6] was “Not Active” in each case. Moreover, in test [7], the Ki entry is listed as “Not Active”.

As to COLISTIN, the IC50 entry in test [1], in test [2], in test [3], in test [4], in test [5] and in test [6] was “Not Active” each time. The IC50 entry in test [7] was “Not Active”. Besides, the inhibition constant Ki entry in test [1], in test [2], in test [3], in test [4], in test [5] and in test [6] was “Not Active” in each case. The Ki result in test [7] is reported as “Not Active”.
